Data published in publication PMC10287695, “Non-covalent inhibitors of thioredoxin glutathione reductase with schistosomicidal activity in vivo” (Nature Communications, 2023).
Several values for one entry are separate records, joined by “and”; a condition that tells them apart may be missing. Equal entries are not always repeated.

Experiments:
TGR [1] = molecular target: T1, TGR (Schistosoma mansoni, UniProt Q962Y6); assay: Time dependence of inhibition; type: biochemical; set-up: avg % inhib, 0.5 hr / avg % inhib, 1 hr / avg % inhib, 2 hr / avg % inhib, 3 hr / avg % inhib, 6 hr / avg % inhib, 24 hr: tested at 50 µM; conditions: for rate, 0.5 hr / avg % inhib, 0.5 hr / % inhib, 0.5 hr / rate, 1 hr / avg % inhib, 1 hr / % inhib, 1 hr / rate, 2 hr / avg % inhib, 2 hr / % inhib, 2 hr / rate, 3 hr / avg % inhib, 3 hr / % inhib, 3 hr / rate, 6 hr / avg % inhib, 6 hr / % inhib, 6 hr / rate, 24 hr / avg % inhib, 24 hr / % inhib, 24 hr: panel d Time Dependence; for avg % inhib, 0.5 hr / avg % inhib, 1 hr / avg % inhib, 2 hr / avg % inhib, 3 hr / avg % inhib, 6 hr / avg % inhib, 24 hr: average; for % inhib, 0.5 hr / % inhib, 1 hr / % inhib, 2 hr / % inhib, 3 hr / % inhib, 6 hr / % inhib, 24 hr / TGR activity relative to dmso, time 0 / TGR activity relative to dmso, time 5 / TGR activity relative to dmso, time 10 / TGR activity relative to dmso, time 15 / TGR activity relative to dmso, time 30: replicates; for TGR activity relative to dmso, time 0 / TGR activity relative to dmso, time 5 / TGR activity relative to dmso, time 10 / TGR activity relative to dmso, time 15 / TGR activity relative to dmso, time 30: panel c; for TGR activity relative to dmso, time 0: time 0 (time unit not given); for TGR activity relative to dmso, time 5: time 5 (time unit not given); for TGR activity relative to dmso, time 10: time 10 (time unit not given); for TGR activity relative to dmso, time 15: time 15 (time unit not given); for TGR activity relative to dmso, time 30: time 30 (time unit not given)
T1 construct: made in house
T1 sequence (Q962Y6 1-598): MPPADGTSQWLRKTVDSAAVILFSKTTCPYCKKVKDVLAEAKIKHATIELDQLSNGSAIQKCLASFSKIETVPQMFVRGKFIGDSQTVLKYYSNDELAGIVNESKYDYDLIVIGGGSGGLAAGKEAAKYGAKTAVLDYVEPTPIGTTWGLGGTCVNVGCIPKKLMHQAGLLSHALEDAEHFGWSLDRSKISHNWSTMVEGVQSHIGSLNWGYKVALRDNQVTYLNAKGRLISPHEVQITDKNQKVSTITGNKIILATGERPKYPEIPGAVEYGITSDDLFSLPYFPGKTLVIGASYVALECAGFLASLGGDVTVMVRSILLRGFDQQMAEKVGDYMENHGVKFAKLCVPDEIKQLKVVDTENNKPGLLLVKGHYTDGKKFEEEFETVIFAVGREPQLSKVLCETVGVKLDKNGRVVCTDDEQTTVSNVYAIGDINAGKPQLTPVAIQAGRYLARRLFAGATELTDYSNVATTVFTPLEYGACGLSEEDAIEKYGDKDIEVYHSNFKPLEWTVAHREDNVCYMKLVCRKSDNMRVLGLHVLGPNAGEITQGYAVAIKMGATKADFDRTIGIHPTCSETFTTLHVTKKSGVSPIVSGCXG
Description: TGR was incubated at room temperature (up to 6 h) and at 4 °C for 6 to 24 h with 50 µM inhibitor and 100 µM NADPH for the indicated times. Then DTNB (3 mM) and NADPH (100 µM) were added, and the reaction was monitored at A412 for 5 min. The assay was done in triplicate.

[2] = test system: TGR in newly transformed schistosomula (NTS); assay: TGR inhibition in NTS with TRFS-Green fluorescent probe; type: cell-based, S. mansoni; conditions: for TRFS-Green fluorescence in NTS: 2 h with inhibitor (30 µM; AF 3 µM) then TRFS-Green 10 µM
Procedure, shortened: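 TGR activity in NTS was probed with the fluorescent reagent TRFS-Green. Parasites in M199 medium with glucose, antibiotics and heat-inactivated serum were kept overnight in clear-bottom plates, exposed to 10 µM probe for 4 h, then washed. Signal from probe uptake was read on a microplate imager (ex 438 nm, em 538 nm) hourly for 5 h and after 24 h.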

TGR [3] = molecular target: T1, TGR; assay: Thermal shift assay (TSA); type: binding; set-up: key to Avg. Tm / Tm, replicate 1-3: Tm in °C, from a 25–95 °C melt curve; conditions: for Avg. Tm / Tm, replicate 1-3: TGR + 100 µM compound; for Avg. Tm, + 500 µM NADPH / Tm, replicate 1-3, + 500 µM NADPH: TGR + 100 µM compound + 500 µM NADPH; for Tm, replicate 1-3, + 500 µM NADPH / Tm, replicate 1-3: single replicates; for effect on Tm of oxidized TGR: without NADPH
Description: Samples were prepared by using a final concentration of 0.25 mg/ml TGR diluted in TGR reaction buffer to the desired volume. To evaluate reduced TGR, 500 µM NADPH was added. […] After the preincubation period, 20 µL samples were pipetted into a BioRad un-skirted PCR 96 well plate and sealed with MicroAmp^TM Optical Adhesive film. The plate was then centrifuged for 5 min at 1000 × g. TSA was carried out using a BioRad CFX Connect qPCR instrument with a melt curve setting of 25 − 95 °C, in increments of 0.5 °C/10 seconds. The SYBR green channel was used to detect fluorescence as the wavelength of flavin fluorescence overlaps with that of SYBR green. BioRad CFX Maestro 5.2 was used to analyze TSA data.

S. japonicum adult worms = assay: Schistosomicidal activity ex vivo, S. japonicum adult worms; type: cell-based; conditions: for LD50 ex vivo S. japonicum adult: 48 h exposure; for viability at 5 µM / viability at 15 µM / viability at 30 µM: Schistosoma japonicum, S. japonicum adult worms, 48 hr; for viability at 5 µM: Conc. 5 µM; for viability at 15 µM: Conc. 15 µM; for viability at 30 µM: Conc. 30 µM
Description: Three-week old, female Swiss-Webster mice obtained from the Charles River were housed in the Comparative Research Center of Rush University Medical Center. Mice were infected by percutaneous tail exposure to about 200 S. mansoni or 50 S. japonicum cercaria for adult worms and about 1000 cercaria for juvenile S. mansoni worms through natural transdermal penetration of the cercariae for 1 h[81].
DMSO formulated compounds were diluted with phenol red free M199 medium or RPMI medium for NTS or juvenile and adult worms, respectively, at <1% DMSO final concentrations. NTS, juvenile and adult worms from overnight cultures were tested against compounds in triplicate. Controls were treated with DMSO alone or 5 µM AF as a positive control in appropriate medium. […] Schistosome viabilities in the presence of the compounds were assessed using this formula: % Viability = Averages of Test / Averages of DMSO Control x 100.

Row | Structure (SMILES) | rate, 0.5 hr (TGR [1]) | avg % inhib, 0.5 hr (TGR [1]) | % inhib, 0.5 hr (TGR [1]) | rate, 1 hr (TGR [1]) | avg % inhib, 1 hr (TGR [1]) | % inhib, 1 hr (TGR [1]) | rate, 2 hr (TGR [1]) | avg % inhib, 2 hr (TGR [1]) | % inhib, 2 hr (TGR [1]) | rate, 3 hr (TGR [1]) | avg % inhib, 3 hr (TGR [1]) | TRFS-Green fluorescence in NTS [2] | Avg. Tm (TGR [3]) | Avg. Tm, + 500 µM NADPH (TGR [3]) | Tm, replicate 1-3, + 500 µM NADPH (TGR [3]; in °C (unit assumed)) | Tm, replicate 1-3 (TGR [3]) | LD50 ex vivo S. japonicum adult (S. japonicum adult worms) | viability at 5 µM (S. japonicum adult worms) | viability at 15 µM (S. japonicum adult worms) | viability at 30 µM (S. japonicum adult worms) | other results
1 | Cc1oc(-c2ccc3c(c2)OCO3)nc1CN[C@@H]1C[C@@H]2C[C@H]([C@H]1C)C2(C)C [Compound 1] | 0.0552 and 0.05671 and 0.05782 | -1.077% | 0.01811% and -0.5318% and -2.718% | 0.04988 and 0.05076 and 0.05122 | 1.283% | 2.919% and -0.8544% and 1.783% | 0.046 and 0.04511 and 0.04817 | 0.9089% | -0.9879% and 3.652% and 0.06224% | 0.03818 and 0.03843 and 0.03937 | 4.332% | significant decreases in fluorescence | 73.67 | 73.5 | 73.5 | 73.5 (2×) and 74 | 19.6 ± 1.91 µM | 87.9% | 56.2% | 19.2% | % inhib, 3 hr (TGR [1]): 4.359% and 4.498% and 4.139%; rate, 6 hr (TGR [1]): 0.02323 and 0.02106 and 0.02443; avg % inhib, 6 hr (TGR [1]): 12.8202%; % inhib, 6 hr (TGR [1]): 11.8406% and 18.1182% and 8.502%; rate, 24 hr (TGR [1]): 0.0142 and 0.01351 and 0.01414; avg % inhib, 24 hr (TGR [1]): 28.9728%; % inhib, 24 hr (TGR [1]): 24.2263% and 31.8365% and 30.8557%; production of green fluorescent dye in TRFS-green assay ([2]; compound at 5 µM): abolished; effect on Tm of oxidized TGR (TGR [3]): Neither fast 6-9 nor slow TGR inhibitors 1, 3, 5 affected the Tm
2 | Cc1oc(-c2ccccc2)nc1CN[C@@H]1C[C@@H]2C[C@H]([C@H]1C)C2(C)C [Compound 3] | 0.04131 and 0.04323 and 0.04147 | 24.9564% | 25.1766% and 23.3647% and 26.3279% | 0.03461 and 0.03399 and 0.03516 | 32.5613% | 32.6392% and 32.4657% and 32.5791% | 0.02942 and 0.0272 and 0.02813 | 39.6519% | 35.4116% and 41.9052% and 41.639% | 0.02162 and 0.0222 and 0.02273 | 45.1094% |  | 73.5 | 73.67 |  |  | 13.9 ± 1.45 µM |  |  |  | % inhib, 3 hr (TGR [1]): 45.8417% and 44.831% and 44.6555%; rate, 6 hr (TGR [1]): 0.01203 and 0.009487 and 0.01329; avg % inhib, 6 hr (TGR [1]): 55.8948%; % inhib, 6 hr (TGR [1]): 54.3454% and 63.1143% and 50.2247%; rate, 24 hr (TGR [1]): 0.008207 and 0.008188 and 0.0092; avg % inhib, 24 hr (TGR [1]): 56.6355%; % inhib, 24 hr (TGR [1]): 56.206% and 58.6882% and 55.0122%; Tm, replicate 1-3, + 500 µM NADPH (TGR [3]): 74 and 73.5 (2×); Tm, replicate 1-3 (TGR [3]; in °C (unit assumed)): 73.5; effect on Tm of oxidized TGR (TGR [3]): Neither fast 6-9 nor slow TGR inhibitors 1, 3, 5 affected the Tm
3 | Cc1oc(C2CCCCC2)nc1C(=O)N[C@@H]1C[C@@H]2C[C@H]([C@H]1C)C2(C)C [Compound 7] |  |  |  |  |  |  |  |  |  |  |  | significant decreases in fluorescence | 73.6667 | 73.5 | 73.5 | 73.5 (2×) and 74 | 26.8 ± 1.62 µM | 89% | 71.1% | 39.8% | TGR activity relative to dmso, time 0 (TGR [1]): 10.9848 and 15.3969 and 9.648; TGR activity relative to dmso, time 5 (TGR [1]): 3.59 and 2.532 and 3.143; TGR activity relative to dmso, time 10 (TGR [1]): 6.629 and 6.846 and 6.371; TGR activity relative to dmso, time 15 (TGR [1]): 7.462 and 7.906 and 7.375; TGR activity relative to dmso, time 30 (TGR [1]): 9.0362 and 7.137 and 8.678
4 | C[C@@H]1[C@H]2C[C@@H](C[C@H]1NCc1nc3ccccc3n1C1CCCCCC1)C2(C)C [Compound 8] |  |  |  |  |  |  |  |  |  |  |  | significant decreases in fluorescence | 73.8333 | 70 | 69 and 70 and 71 | 73.5 and 74 (2×) | 25.8 ± 1.87 µM | 70.6% | 60.8% | 43.4% | TGR activity relative to dmso, time 0 (TGR [1]): 81.9258 and 91.2824 and 94.0371; TGR activity relative to dmso, time 5 (TGR [1]): 16.4661 and 22.6942 and 32.7859; TGR activity relative to dmso, time 10 (TGR [1]): 10.3137 and 9.575 and 9.146; TGR activity relative to dmso, time 15 (TGR [1]): 4.106 and 4.258 and 6.77; TGR activity relative to dmso, time 30 (TGR [1]): 0.4436 and 0.7059 and 0.3756
